The record followed here is US9840481B2, “Allosteric modulators of nicotinic acetylcholine receptors” (MERCK SHARP & DOHME CORP., priority 2016, dated 2017).

This assay has as its target T1, human α7 nAChR stably expressed in a HEK cell line (with human RIC-3) (Homo sapiens, UniProt P36544).
T1 construct: PrecisION hnAChR α7/RIC-3
Nature of the assay: Automated patch-clamp electrophysiology functional assay (Assay A), IonFlux HT, whole-cell population patch. Format: cell-based. The method, boiled down:
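Whole-cell population patch clamp (IonFlux HT) used HEK cells stably co-expressing human α7 and RIC-3, held at −60 mV at room temperature. Compounds were applied alone (agonism) or with 40 μM acetylcholine (potentiation), three ascending concentrations per recording. Currents were quantified relative to a 40 μM acetylcholine reference response, giving EC50.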

Where [1] appears, read: automated patch-clamp electrophysiology functional assay (Assay A), potency class by EC50, read-out: α7 nAChR Potency.
The mark [2] stands for this setting: electrophysiology EC50, HEK cells expressing human α7/RIC-3, 40 μM acetylcholine, holding potential −60 mV, room temperature, read-out: α7 nAChR EC50.

Where two headings read alike, the source gives them in different places. Some results are limits rather than exact numbers.

T1 sequence (P36544 23-502): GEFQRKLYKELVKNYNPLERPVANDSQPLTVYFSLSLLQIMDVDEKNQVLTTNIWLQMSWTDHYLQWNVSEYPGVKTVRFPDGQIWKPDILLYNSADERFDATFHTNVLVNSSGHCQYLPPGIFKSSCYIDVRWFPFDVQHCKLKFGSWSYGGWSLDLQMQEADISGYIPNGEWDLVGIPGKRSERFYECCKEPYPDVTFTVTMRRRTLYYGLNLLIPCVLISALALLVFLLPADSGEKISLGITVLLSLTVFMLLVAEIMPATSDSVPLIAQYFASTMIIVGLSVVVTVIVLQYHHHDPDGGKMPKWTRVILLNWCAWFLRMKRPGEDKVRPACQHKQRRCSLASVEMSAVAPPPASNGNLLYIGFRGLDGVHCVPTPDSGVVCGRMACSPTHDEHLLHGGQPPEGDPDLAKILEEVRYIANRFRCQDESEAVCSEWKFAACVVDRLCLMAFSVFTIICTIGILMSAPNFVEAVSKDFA

With `CC(C)(F)c1noc([C@H]2[C@H](c3ccc(S(N)(=O)=O)cc3)C2(F)F)n1` [Example D35], the EC50 is 100 to 500 nM under setting [1] and 410 nM under setting [2].
As to `CC1(C)[C@H](c2ccc(S(N)(=O)=O)cc2)[C@H]1c1nc(-c2c(F)cccc2F)no1` [Example A11], the EC50 by setting is: under setting [1], 500 to 5000 nM; under setting [2], 960 nM.
As to `CC1(C)[C@@H](c2ccc(S(N)(=O)=O)cc2)[C@@H]1c1noc(C2CCc3cc(F)ccc32)n1` (some centres unmarked) [Example I3], the EC50 by setting is: under setting [1], no more than 100 nM; under setting [2], 96 nM.
Consider `CC1(C)[C@@H](c2ccc(S(N)(=O)=O)cc2)[C@@H]1c1noc(-c2ccc(F)c(OC(F)(F)F)c2)n1` [Example H4], for which the EC50 under setting [1] lay within 500 to 5000 nM.
For `CC1(C)[C@@H](c2ccc(S(N)(=O)=O)cc2)[C@@H]1c1nnc(-c2cccc(F)c2)o1` [Example G3], the EC50 under setting [1] was in the range of 500 to 5000 nM and the EC50 under setting [2] stood at 740 nM.
`CC1(C)[C@H](c2ccc(S(N)(=O)=O)cc2)[C@H]1c1nc(-c2cccc(Br)c2)no1` [Example A14]: under setting [1], the EC50 lay in the range of 500 to 5000 nM.
On to `CCc1coc([C@H]2[C@H](c3ccc(S(N)(=O)=O)cc3)C2(C)C)n1` [Example K8], for which the EC50 runs as follows: under setting [1], 500 to 5000 nM; under setting [2], 540 nM.
With `NS(=O)(=O)c1ccc([C@@H]2C[C@H]2c2cnc(C3CCCCC3)o2)cc1` [Example 28, 4-[(1R,2R)-2-(2-Cyclohexyl-1,3-oxazol-5-yl)cyclopropyl]benzenesulfonamide], the EC50 under setting [1] fell in the range of 100 to 500 nM and the EC50 under setting [2] turned out to be 460 nM.
On to `NS(=O)(=O)c1ccc([C@@H]2C[C@H]2c2nc(Cc3ccc(F)cc3F)no2)cc1` [Example D26], for which the EC50 reads like this: under setting [1], 500 to 5000 nM; under setting [2], 810 nM.
With `CC1(C)[C@@H](c2ccc(S(N)(=O)=O)cc2)[C@@H]1c1nc(-c2ccccc2F)co1` [Example K1], the EC50 under setting [1] is 100 to 500 nM.
Turning to `CC(C)c1cnc([C@H]2[C@H](c3ccc(S(N)(=O)=O)cc3)C2(C)C)s1` [Example 21, 4-{(1S,3S)-2,2-Dimethyl-3-[5-(propan-2-yl)-1,3-thiazol-2-yl]cyclopropyl}benzenesulfonamide], the EC50 under setting [1] is 100 to 500 nM and the EC50 under setting [2] stood at 390 nM.
As for `CC1(C)[C@@H](c2ccc(S(N)(=O)=O)cc2)[C@@H]1c1noc(CCC2CC2)n1` [Example 2, 4-((1S,3S)-3-(5-(2-Cyclopropylethyl)-1,2,4-oxadiazol-3-yl)-2,2-dimethylcyclopropyl)benzenesulfonamide], the EC50 under setting [1] was in the range of 100 to 500 nM.
As for `CC1(C)[C@@H](c2ccc(S(N)(=O)=O)cc2)[C@@H]1c1csc(C2CCCC2)n1` [Example L15], the EC50 is 100 to 500 nM under setting [1] and 370 nM under setting [2].
In the same order, the values of `CC1(C)[C@@H](c2ccc(S(N)(=O)=O)cc2)[C@@H]1c1nnc(-c2cc(F)ccc2C(F)(F)F)o1` [Example G6] are 500 to 5000 nM and 1100 nM.
For `CC1(C)[C@@H](c2ccc(S(N)(=O)=O)cc2)[C@@H]1c1noc(C2CCCCC23CC3)n1` (some centres unmarked) [Example I27], the EC50 under setting [1] is 100 to 500 nM.
`NS(=O)(=O)c1ccc([C@H]2C[C@@H]2c2cnc(-c3ccccc3)o2)cc1` [Example L2]: the EC50 by setting is: under setting [1], 500 to 5000 nM; under setting [2], 4800 nM.
As to `CC1(C)[C@H](c2ccc(S(N)(=O)=O)cc2)[C@H]1c1cnn(-c2cccc(F)c2)c1` [Example 13, 4-{(1R,3R)-3-[1-(3-Fluorophenyl)-1H-pyrazol-4-yl]-2,2-dimethylcyclopropyl}benzenesulfonamide], the EC50 runs as follows: under setting [1], 100 to 500 nM; under setting [2], 340 nM.
On to `NS(=O)(=O)c1ccc([C@@H]2C[C@H]2c2cn(-c3cccc(F)c3)nn2)cc1` [Example 26, 4-{(1R,2R)-2-[1-(3-Fluorophenyl)-1H-1,2,3-triazol-4-yl]cyclopropyl}benzenesulfonamide], for which the EC50 reads like this: under setting [1], 500 to 5000 nM; under setting [2], 1600 nM.
On to `NS(=O)(=O)c1ccc([C@@H]2C[C@H]2c2nc(-c3cnccc3C(F)(F)F)no2)cc1` [Example D25], for which the EC50 under setting [1] was in the range of 500 to 5000 nM.
In the case of `CC1(C)[C@H](c2ccc(S(N)(=O)=O)cc2)[C@H]1c1nc(C2CCCC2)co1` [Example J8], the EC50 under setting [1] lay within 500 to 5000 nM.
In the case of `CC1(C)[C@H](c2ccc(S(N)(=O)=O)cc2)[C@H]1c1nc(-c2cncc(C(F)(F)F)c2)no1` [Example B7], the EC50 was 500 to 5000 nM under setting [1] and 2800 nM under setting [2].
In the same order, the values of `CC(C)(C)c1noc([C@H]2[C@H](c3ccc(S(N)(=O)=O)cc3)C2(C)C)n1` [Example D10] are 100 to 500 nM and 410 nM.
In the same order, the values of `CC1(C)[C@H](c2ccc(S(N)(=O)=O)cc2)[C@H]1c1nc(C2CCC2)no1` [Example B3] are 5000 to 50000 nM and 8700 nM.
Take `NS(=O)(=O)c1ccc([C@@H]2C[C@H]2c2nsc(C3CCCCC3)n2)cc1` [Example L11]: the EC50 under setting [1] lay within 100 to 500 nM.
Turning to `CC1(C)[C@@H](c2ccc(S(N)(=O)=O)cc2)[C@@H]1c1cn(-c2cccc(F)c2)nn1` [Example L6], the EC50 under setting [1] fell in the range of 500 to 5000 nM and the EC50 under setting [2] is 950 nM.
As for `CC(C)(C)c1noc([C@@H]2[C@@H](c3ccc(S(N)(=O)=O)cc3)C2(F)F)n1` [Example B17], the EC50 was 500 to 5000 nM under setting [1] and 850 nM under setting [2].
Take `NS(=O)(=O)c1ccc([C@@H]2C[C@H]2c2nc(-c3ccccc3F)no2)cc1` [Example C20]: under setting [1], the EC50 is 100 to 500 nM.
As to `CC1(C)C(c2ccc(OS(N)(=O)=O)cc2)C1c1nc(-c2ccccc2)no1` (stereo not drawn) [Example 30, 4-[trans-2,2-Dimethyl-3-(3-phenyl-1,2,4-oxadiazol-5-yl)cyclopropyl]phenyl sulfamate], the EC50 reads like this: under setting [1], 500 to 5000 nM; under setting [2], 1400 nM.
In the case of `COc1ccc(Cl)cc1-c1noc([C@H]2[C@H](c3ccc(S(N)(=O)=O)cc3)C2(C)C)n1` [Example C1], the EC50 under setting [1] was in the range of 5000 to 50000 nM.
`CC1(C)[C@@H](c2ccc(S(N)(=O)=O)cc2)[C@@H]1c1noc(-c2nc(-c3ccc(F)cc3)c[nH]2)n1` [Example I17]: the EC50 under setting [1] fell in the range of 500 to 5000 nM.
Regarding `NS(=O)(=O)c1ccc([C@@H]2C[C@H]2c2nc(-c3ccccc3)no2)cc1` [Example C5], the EC50 was 100 to 500 nM under setting [1] and 120 nM under setting [2].
As to `NS(=O)(=O)c1ccc([C@H]2[C@H](c3ncc(C4CCCC4)o3)C2(F)F)cc1` [Example K13], the EC50 runs as follows: under setting [1], 100 to 500 nM; under setting [2], 390 nM.
In the case of `CC1(C)[C@H](c2ccc(S(N)(=O)=O)cc2)[C@H]1c1nc(-c2cccc(F)c2)no1` [Example A10], the EC50 is 500 to 5000 nM under setting [1] and 1100 nM under setting [2].
In the case of `NS(=O)(=O)c1ccc([C@@H]2C[C@H]2c2ncc(-c3ccccc3)o2)cc1` [Example 8, 4-[(1R,2R)-2-(5-Phenyl-1,3-oxazol-2-yl)cyclopropyl]benzenesulfonamide], the EC50 was 100 to 500 nM under setting [1] and 500 nM under setting [2].
As for `CC1(C)[C@H](c2ccc(S(N)(=O)=O)cc2)[C@H]1c1nc(-c2ccccc2F)no1` [Example A12], the EC50 under setting [1] fell in the range of 500 to 5000 nM.
Consider `CC1(C)[C@@H](c2ccc(S(N)(=O)=O)cc2)[C@@H]1c1noc(-c2cccnc2C(F)(F)F)n1` [Example I21], for which, under setting [1], the EC50 was 500 to 5000 nM.
In the case of `CC(C)c1noc([C@H]2[C@H](c3ccc(S(N)(=O)=O)cc3)C2(F)F)n1` [Example D1], the EC50 under setting [1] is 100 to 500 nM and the EC50 under setting [2] was 120 nM.
Regarding `CC1(C)[C@H](c2ccc(S(N)(=O)=O)cc2)[C@H]1c1nc(C2CCCC2)no1` [Example B9], the EC50 runs as follows: under setting [1], 500 to 5000 nM; under setting [2], 1000 nM.
As for `CC1(C)[C@@H](c2ccc(S(N)(=O)=O)cc2)[C@@H]1c1noc(-c2cscn2)n1` [Example I6], the EC50 under setting [1] was 500 to 5000 nM.
Same read-out and setting: to `CC1(C)[C@@H](c2ccc(S(N)(=O)=O)cc2)[C@@H]1c1noc(-c2cccc(OC(F)(F)C(F)F)c2)n1` [Example H14] belongs 100 to 500 nM.
`CC1(C)[C@H](c2ccc(S(N)(=O)=O)cc2)[C@H]1c1nc(C2(c3ccccc3)CC2)no1` [Example B13]: the EC50 under setting [1] was in the range of 500 to 5000 nM and the EC50 under setting [2] was 4100 nM.
For the molecule `CC1C(c2ccc(S(N)(=O)=O)cc2)C1c1nc(-c2ccccc2)no1` (single isomer, unassigned) [Example M2], the EC50 was 500 to 5000 nM under setting [1] and 1700 nM under setting [2].
Take `CC1(C)[C@@H](c2ccc(S(N)(=O)=O)cc2)[C@@H]1c1noc(-c2ccc(F)cc2Cl)n1` [Example H2]: the EC50 is 500 to 5000 nM under setting [1] and 510 nM under setting [2].
As to `NS(=O)(=O)c1ccc([C@@H]2[C@@H](c3nc(-c4ccccc4)no3)C2(F)F)cc1` [Example A9], the EC50 under setting [1] was in the range of 500 to 5000 nM.
`CC1(C)[C@@H](c2ccc(S(N)(=O)=O)cc2)[C@@H]1c1nnc(-c2ccccc2)o1` [Example G1]: the EC50 was 500 to 5000 nM under setting [1] and 1800 nM under setting [2].
As to `NS(=O)(=O)c1ccc([C@@H]2C[C@H]2c2csc(C3CCCC3)n2)cc1` [Example L14], the EC50 under setting [1] fell in the range of 500 to 5000 nM.
Regarding `CC1(C)[C@H](c2ccc(S(N)(=O)=O)cc2)[C@H]1c1ncc(C2CCCC2)s1` [Example J9], the EC50 under setting [1] was 500 to 5000 nM.
Consider `NS(=O)(=O)c1ccc([C@@H]2C[C@H]2c2nc(-c3cccnc3C3CC3)no2)cc1` [Example D24], for which the EC50 reads like this: under setting [1], 100 to 500 nM; under setting [2], 230 nM.
On to `CC(F)(F)c1nc([C@H]2[C@H](c3ccc(S(N)(=O)=O)cc3)C2(C)C)no1` [Example I16], for which the EC50 reads like this: under setting [1], 100 to 500 nM; under setting [2], 350 nM.
As for `NS(=O)(=O)c1ccc([C@@H]2C[C@H]2c2nc(CC3CC3)no2)cc1` [Example D28], under setting [1], the EC50 lay within 500 to 5000 nM.
As for `COc1ccc(Cl)cc1-c1noc([C@@H]2C[C@H]2c2ccc(S(N)(=O)=O)cc2)n1` [Example 19, 4-{(1R,2R)-2-[3-(5-Chloro-2-methoxyphenyl)-1,2,4-oxadiazol-5-yl]cyclopropyl}benzenesulfonamide], the EC50 is, setting by setting: under setting [1], 500 to 5000 nM; under setting [2], 780 nM.
